Patent publication US5229409A, “6-substituted-tetrahydrobenz[cd]indoles” (Eli Lilly and Company, priority 1991, dated 1993)

Tests used:
[1] = target: T1, 5-HT1A receptor (Rattus norvegicus, UniProt P19327); experiment: [3H]8-OH-DPAT binding to 5-HT1A sites in hippocampal membranes; set-up: species or system rat (male Sprague-Dawley); conditions: [3H]8-OH-DPAT 1.0 nM, pH 7.4, 37° C
T1 construct: the brains were rapidly chilled and dissected to obtain the hippocampi; from tissue; host or cells: hippocampi of male Sprague-Dawley rats (150-250 g), washed membranes
T1 sequence (P19327 1-422): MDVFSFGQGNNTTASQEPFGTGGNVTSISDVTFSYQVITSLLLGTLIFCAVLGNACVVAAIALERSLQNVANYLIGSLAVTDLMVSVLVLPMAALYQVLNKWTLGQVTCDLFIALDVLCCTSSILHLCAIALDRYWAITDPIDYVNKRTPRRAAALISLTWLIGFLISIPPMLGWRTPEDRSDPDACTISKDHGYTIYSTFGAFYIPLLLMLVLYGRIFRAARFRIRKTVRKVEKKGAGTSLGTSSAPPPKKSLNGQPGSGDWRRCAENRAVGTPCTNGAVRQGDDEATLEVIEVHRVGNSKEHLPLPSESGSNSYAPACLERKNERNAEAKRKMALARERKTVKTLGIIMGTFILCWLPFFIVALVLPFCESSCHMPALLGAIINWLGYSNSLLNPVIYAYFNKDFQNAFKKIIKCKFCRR
Experimental: The affinities of the compounds at the central […] described by Taylor, et al., (J. Pharmacol. Exp. Ther. 236:118-125, 1986). Membranes for the binding assay were prepared from male Sprague-Dawley rats (150-250 g). The animals were killed by decapitation, and the brains were rapidly chilled and dissected to obtain the hippocampi. The hippocampi were either prepared that day or stored frozen (-70° C.) until the day of preparation. Membranes were prepared by homogenizing the tissue in 40 volumes of ice-cold Tris-HCl buffer (50 mM, pH 7.4 at 22° C.) using a Techmar Tissumizer (setting 65 for 15 sec), and the homogenate was centrifuged at 39800 xg for 10 min. The resulting pellet then resuspended in the same buffer, and the centrifugation and resuspension process was repeated three additional times to wash the membranes. Between the second and third washes the resuspended membranes were incubated for 10 min at 37° C. to facilitate the removal of endogenous ligands. The final pellet was resuspended in 67 mM Tris-HCl, pH 7.4, to a concentration of 2 mg of tissue original wet weight/200 μl. This homogenate was stored frozen (-70° C.) until the day of the binding assay. […] The assay tubes were incubated for 10 min at 37° C, and the contents were then rapidly filtered through GF/B filters (pretreated with 0.5% polyethylenimine), followed by four one-mL washes with ice cold buffer. The radioactivity trapped by the filters was quantitated by liquid scintillation spectrometry, and specific [^3 H]8-OH-DPAT binding to the 5-HT1A sites was defined as the difference between [^3 H]8-OH-DPAT bound in the presence and absence of 10 μM 5-HT.
The affinity of the particular compound at the 5-HT1A receptor is expressed as IC50 value, i.e., the concentration required to inhibit 50% of the binding. The IC50 values were determined from 12-point competition curves using nonlinear regression (SYSTAT, SYSTAT, INC., Evanston, Ill.).

[2] = target: T2, 5-HT1D receptor (Bos taurus, UniProt F1MGM3); experiment: [3H]5-HT binding to 5-HT1D sites in caudate nuclei membranes; conditions: bovine caudate membranes, [3H]5-HT 1.7-1.9 nM, pH 7.4, 37° C
T2 construct: the caudate nuclei were dissected out and frozen at -70° C; tissue Pel-Freeze Biologicals; host or cells: bovine caudate nuclei, washed membranes
T2 sequence (F1MGM3 1-403): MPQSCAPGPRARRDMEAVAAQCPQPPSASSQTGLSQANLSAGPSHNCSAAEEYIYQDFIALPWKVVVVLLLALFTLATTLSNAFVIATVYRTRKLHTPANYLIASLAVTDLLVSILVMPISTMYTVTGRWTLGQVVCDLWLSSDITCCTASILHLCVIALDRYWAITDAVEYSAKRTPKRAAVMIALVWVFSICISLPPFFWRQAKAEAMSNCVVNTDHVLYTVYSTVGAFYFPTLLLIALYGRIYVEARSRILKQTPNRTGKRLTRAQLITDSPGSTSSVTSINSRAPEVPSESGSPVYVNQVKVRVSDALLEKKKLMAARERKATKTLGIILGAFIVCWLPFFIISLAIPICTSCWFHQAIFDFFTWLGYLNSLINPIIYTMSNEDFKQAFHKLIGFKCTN
Experimental: The affinities of the compounds at the central 5-HT1D binding sites were determined using a modification of the binding assay described by Heuring and Peroutka (J. Neurosci. 7:894-903, 1987). Bovine brains were obtained from Pel-Freeze Biologicals, and the caudate nuclei were dissected out and frozen at -70° C. until the time that the membranes were prepared for the binding assays. At that time the tissues were homogenized in 40 volumes of ice-cold Tris-HCl buffer (50 mM, pH 7.4 at 22° C.) with a Techmar Tissumizer (setting 65 for 15 sec), and the homogenate was centrifuged at 39,800 g for 10 min. The resulting pellet was then resuspended in the same buffer, and the centrifugation and resuspension process was repeated three additional times to wash the membranes. Between the second and third washes the resuspended membranes were incubated for 10 min at 37° C. to facilitate the removal of endogenous 5-HT. the final pellet was resuspended in Tris buffer to a concentration of 25 mg of original tissue wet weight/ml for use in the binding assay. […] The assay tubes were incubated for 10 min at 37° C., and the contents were then rapidly filtered through GF/B filters (pretreated with 0.5% polyethylenimine), followed by four one-mL washes with ice-cold buffer. The radioactivity trapped by the filters was quantitated by liquid scintillation spectrometry, and specific [^3 H]5-HT binding to the 5HT1D sites were defined as the difference between [^3 H]5-HT bound in the presence and absence of 10 μM 5-HT.
The affinities of compounds at the 5-HT1D receptor are expressed as IC50 values, i.e., the concentration required to inhibit 50% of the binding. These values were determined from 12-point competition curves using nonlinear regression (SYSTAT, SYSTAT, Inc. Evanston, Ill.).

[3] = tested on: serotonin; experiment: whole brain serotonin concentration in vivo in rats; set-up: species or system rat (male albino); conditions: 1 hour
Experimental: (§1) In another experiment certain compounds of the Examples were evaluated to determine ability to affect the 5-hydroxyindoles serotonin and 5-hydroxyindole acetic acid (5HIAA), and serum corticosterone, in vivo. Male albino rats were injected subcutaneously with an aqueous solution of the compound. The pH of the solution was adjusted as necessary to solubilize the compound. A control of the solution without the test compound was similarly injected into a control animal. The rats were decapitated one hour later. Trunk blood was collected and allowed to clot. After centrifugation, serum was stored frozen prior to analysis. The whole brain was removed and frozen on dry ice for storage prior to analysis. The serum corticosterone concentration was measured spectrofluorometrically using the procedure of Solem and Brinck-Johnson, "An Evaluation of a Method for Determination of Free Corticosteroids in Minute Quantities of Mouse Plasma", Scand. J. Clin. Lab. Invest., Suppl. 80, p. 1-14 (1965), incorporated herein by reference. 5-Hydroxyindoleacetic acid (5HIAA) concentration in whole brain was measured by liquid chromatography with electrochemical detection as reported by Fuller and Perry, "Effects of Buspirone and its Metabolite, 1-(2-pyrimidinyl)piperazine, on Brain Monoamines and Their Metabolites in Rats", J. Pharmacol. Exp. Ther., 248, p. 50-56 (1989), incorporated herein by reference.

[4] = tested on: serum corticosterone; experiment: serum corticosterone concentration in vivo in rats; set-up: species or system rat (male albino); conditions: 1 hour
Experimental: as §1

[5] = 0.0003 mg/kg s.c., series 0.0003-0.03 mg/kg
[6] = 0.003 mg/kg s.c., series 0.0003-0.03 mg/kg
[7] = 0.03 mg/kg s.c., series 0.0003-0.03 mg/kg
[8] = 0.03 mg/kg s.c., series 0.03-3 mg/kg
[9] = 0.3 mg/kg s.c., series 0.03-3 mg/kg
[10] = 3 mg/kg s.c., series 0.03-3 mg/kg

SMILES: CCCN(CCC)C1Cc2c[nH]c3ccc(C(C)=O)c(c23)C1 (racemic) [Example 2, (±)-6-Acetyl-4-(di-n-propylamino)-1,3,4,5-tetrahydrobenz[cd]indole]
- IC50 [1]: 0.2 nM
- IC50 [2]: 18.4 nM
- Serotonin [3, 5]: 2.71 ± 0.06 nmol/g
- Serotonin [3, 6]: 2.64 ± 0.11 nmol/g
- Serotonin [3, 7]: 3.23 ± 0.11 nmol/g
- Serotonin [3, 8]: 2.60 ± 0.09 nmol/g
- Serotonin [3, 9]: 2.54 ± 0.14 nmol/g
- Serotonin [3, 10]: 3.25 ± 0.01 nmol/g
- Serum Corticosterone [4, 5]: 3.8 ± 0.5 microg./100 ml
- Serum Corticosterone [4, 6]: 3.6 ± 0.1 microg./100 ml
- Serum Corticosterone [4, 7]: 36.7 ± 1.2 microg./100 ml
- Serum Corticosterone [4, 8]: 33.4 ± 3.7 microg./100 ml
- Serum Corticosterone [4, 9]: 39.1 ± 1.1 microg./100 ml
- Serum Corticosterone [4, 10]: 13.8 ± 0.6 microg./100 ml

SMILES: CCCN(CCC)[C@H]1Cc2c[nH]c3ccc(C(=O)C(C)C)c(c23)C1 [Example 9, (4R)-(+)-6-(2-methylpropanoyl)-4-(di-n-propylamino)-1,3,4,5-tetrahydrobenz[cd]indole]
- IC50 [1]: 0.16 nM
- IC50 [2]: 1.27 nM
- Serotonin [3, 5]: 2.76 ± 0.10 nmol/g
- Serotonin [3, 6]: 2.94 ± 0.11 nmol/g
- Serotonin [3, 7]: 3.08 ± 0.11 nmol/g
- Serotonin [3, 8]: 2.56 ± 0.07 nmol/g
- Serotonin [3, 9]: 2.94 ± 0.13 nmol/g
- Serotonin [3, 10]: 2.65 ± 0.07 nmol/g
- Serum Corticosterone [4, 5]: 4.1 ± 0.5 microg./100 ml
- Serum Corticosterone [4, 6]: 6.0 ± 1.3 microg./100 ml
- Serum Corticosterone [4, 7]: 9.1 ± 1.2 microg./100 ml
- Serum Corticosterone [4, 8]: 7.7 ± 1.8 microg./100 ml
- Serum Corticosterone [4, 9]: 40.8 ± 2.0 microg./100 ml
- Serum Corticosterone [4, 10]: 30.8 ± 4.5 microg./100 ml

SMILES: CCCN(CCC)[C@H]1Cc2c[nH]c3ccc(C(C)=O)c(c23)C1 [Example 7, (4R)-(+)-6-acetyl-4-(di-n-propylamino)-1,3,4,5-tetrahydrobenz[cd]indole]
- IC50 [1]: 0.22 nM
- IC50 [2]: 7.46 nM
- Serotonin [3, 5]: 2.68 ± 0.11 nmol/g
- Serotonin [3, 6]: 2.74 ± 0.07 nmol/g
- Serotonin [3, 7]: 3.00 ± 0.10 nmol/g
- Serotonin [3, 8]: 2.47 ± 0.07 nmol/g
- Serotonin [3, 9]: 2.59 ± 0.14 nmol/g
- Serum Corticosterone [4, 5]: 4.1 ± 0.6 microg./100 ml
- Serum Corticosterone [4, 6]: 3.6 ± 0.1 microg./100 ml
- Serum Corticosterone [4, 7]: 21.8 ± 2.1 microg./100 ml
- Serum Corticosterone [4, 8]: 41.8 ± 1.7 microg./100 ml
- Serum Corticosterone [4, 9]: 41.5 ± 5.3 microg./100 ml

SMILES: CCCN(CCC)[C@@H]1Cc2c[nH]c3ccc(C(C)=O)c(c23)C1 [Example 8, (4S)-(-)-6-acetyl-4-(di-n-propylamino)-1,3,4,5-tetrahydrobenz[cd]indole]
- IC50 [1]: 0.12 nM
- IC50 [2]: 96.4 nM
- Serotonin [3, 5]: 2.91 ± 0.12 nmol/g
- Serotonin [3, 6]: 2.65 ± 0.13 nmol/g
- Serotonin [3, 7]: 3.30 ± 0.09 nmol/g
- Serotonin [3, 8]: 2.58 ± 0.15 nmol/g
- Serotonin [3, 9]: 2.78 ± 0.13 nmol/g
- Serotonin [3, 10]: 2.63 ± 0.12 nmol/g
- Serum Corticosterone [4, 5]: 3.4 ± 0.2 microg./100 ml
- Serum Corticosterone [4, 6]: 3.8 ± 0.2 microg./100 ml
- Serum Corticosterone [4, 7]: 40.3 ± 1.8 microg./100 ml
- Serum Corticosterone [4, 8]: 47.0 ± 2.4 microg./100 ml
- Serum Corticosterone [4, 9]: 47.3 ± 2.3 microg./100 ml
- Serum Corticosterone [4, 10]: 45.4 ± 1.3 microg./100 ml
